Source: patent US6932990B2, “Carbohydrate absorption inhibitor and method for manufacturing the same” (Oryza Oil & Fat Chemical Co., Ltd., priority 2000, dated 2005)
Converted amounts (≈) assume the structure as drawn. Where two headings read alike, the source gives them in different places.

Columns and labels:
[1] = biological target: α-glucosidase (acetone powder in the intestinal canal of rat); test: α-glucosidase inhibitory activity (4-methylumbelliferyl-α-D-glucoside, fluorometry); assay type: biochemical
Method: Next, α-glucosidase inhibitory activity (%) in regard to the embodiment 1 (evening primrose seed extract) was identified by the following method. As for the α-glucosidase for this measurement, 0.1 mol maleic acid buffer solution (pH 6.0) was added to the acetone powder in the intestinal canal of rat (SIGMA CHEMICAL CO.) and homogenized in ice by using a glass homogenizer, and then centrifugalized supernatant was diluted 20 times. Measuring method is shown below. […] After that, the reaction was suspended by adding 3 ml glycin buffer solution (pH 10.3) and the quantity of the isolated 4-methylumbelliferyl was determined by using a fluorometer (excitation wavelength: 366 nm & fluorescent wavelength: […]). Enzyme activity was calculated based on this determined value and inhibitory activity (%) was calculated by the following formula. […] Inhibitory activity (%)=100−Enzyme activity (%)

[2] = biological target: T1, α-amylase derived from pancreas of pig (Sus scrofa, UniProt P00690); test: Inhibitory activity against α-amylase derived from pancreas of pig (same method); assay type: biochemical
T1 construct: the α-amylase derived from pancreas of pig; from tissue; host or cells: pig pancreas
T1 sequence (P00690 16-511): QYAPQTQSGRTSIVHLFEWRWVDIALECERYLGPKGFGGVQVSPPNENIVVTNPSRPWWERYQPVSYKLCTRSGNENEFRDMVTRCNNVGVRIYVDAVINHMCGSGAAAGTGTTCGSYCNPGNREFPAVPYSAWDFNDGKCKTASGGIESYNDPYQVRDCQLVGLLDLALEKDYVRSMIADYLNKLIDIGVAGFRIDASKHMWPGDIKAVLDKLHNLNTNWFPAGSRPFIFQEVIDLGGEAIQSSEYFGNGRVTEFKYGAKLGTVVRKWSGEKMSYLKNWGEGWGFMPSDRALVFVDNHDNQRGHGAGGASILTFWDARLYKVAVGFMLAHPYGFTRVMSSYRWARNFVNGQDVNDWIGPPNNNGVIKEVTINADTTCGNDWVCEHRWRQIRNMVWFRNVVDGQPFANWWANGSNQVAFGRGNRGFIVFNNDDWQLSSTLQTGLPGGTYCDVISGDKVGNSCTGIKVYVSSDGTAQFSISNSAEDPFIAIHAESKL

| IC50 ([2]; read-out: IC50 against the α-amylase derived from pancreas of pig (converted)) [µM] | Compound | IC50 (50% inhibitory concentration) against α-glucosidase [1] [µg/mL] | IC50 [2] [µM] |
| --- | --- | --- | --- |
| – | O=c1oc2c(O)c(O)cc3c(=O)oc4c(O)c(O)cc1c4c23 [Ellagic acid] | >80 | – |
| – | O=C(O)c1cc(O)c(O)c(O)c1 [Gallic acid] | 800 (≈ 4700 µM) | 2350 |
| 21.3 | O=C(OC[C@H]1O[C@@H](OC(=O)c2cc(O)c(O)c(O)c2)[C@H](OC(=O)c2cc(O)c(O)c(O)c2)[C@@H](OC(=O)c2cc(O)c(O)c(O)c2)[C@@H]1OC(=O)c1cc(O)c(O)c(O)c1)c1cc(O)c(O)c(O)c1 [Pentagalloylglucose] | – | – |
| – | Catechin | 800 | – |
